Among the data in US20120088791A1, “AMIDOBIPIPERIDINECARBOXYLATE M1 ALLOSTERIC AGONISTS, ANALOGS AND DERIVATIVES THEREOF, AND METHODS OF MAKING AND USING SAME” (VANDERBILT UNIVERSITY, priority 2009, published 2012) are Emax and EC50 values, retold here.

One may read the EC50 as the concentration needed to bring the measured effect to its halfway point.

In this experiment the target is T1, rM1 (Rattus norvegicus, UniProt P08482).
T1 construct: host or cells: CHO-K1
T1 sequence (P08482 1-460): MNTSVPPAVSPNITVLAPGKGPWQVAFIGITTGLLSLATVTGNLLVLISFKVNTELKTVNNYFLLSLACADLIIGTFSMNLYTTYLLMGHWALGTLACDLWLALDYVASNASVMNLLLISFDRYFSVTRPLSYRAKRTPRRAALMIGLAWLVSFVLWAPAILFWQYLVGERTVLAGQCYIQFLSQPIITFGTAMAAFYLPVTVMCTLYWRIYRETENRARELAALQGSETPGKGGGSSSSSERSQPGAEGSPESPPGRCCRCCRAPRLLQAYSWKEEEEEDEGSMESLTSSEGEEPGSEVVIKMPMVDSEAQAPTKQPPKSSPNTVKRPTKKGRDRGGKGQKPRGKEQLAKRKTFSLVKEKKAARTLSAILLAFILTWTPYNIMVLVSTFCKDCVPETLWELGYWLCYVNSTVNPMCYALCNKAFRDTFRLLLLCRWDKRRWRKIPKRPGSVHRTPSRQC
Nature of the experiment: Calcium mobilization assay, CHO-K1 cells stably expressing rM1. The class given is cell-based. The conditions noted are these: for Emax: RM1, read-out: Efficacy (% Max ACh); for EC50: read-out: Potency (EC50). An excerpt: Cell culture and transfections. Chinese hamster ovary (CHO-K1) cells stably expressing rat (r)M1 were purchased from the American Type Culture Collection and cultured according to their indicated protocol. CHO cells stably expressing human (h)M2, hM3, and hM5 were used and described previously (Levey et al., 1991); rM4 cDNA, provided by T. I. Bonner (National Institutes of Health, Bethesda, Md.), was used to stably transfect CHO-K1 cells purchased from the American Type Culture Collection using Lipofectamine2000. To make stable hM2 and rM4 cell lines for use in calcium mobilization assays, these cells also were stably transfected with a chimeric G-protein (Gqi5) using Lipofectamine 2000. M1, hM3, and hM5 cells were grown in Ham's F-12 medium containing 10% heat-inactivated fetal bovine serum (FBS), 20 mM HEPES, and 50 μg/ml G418 sulfate. hM2-Gqi5 cells were grown in the same medium also containing 500 μg/ml Hygromycin B. Stable rM4-Gqi5 cells were grown in DMEM containing 10% heat-inactivated FBS, 20 mM HEPES, 400 μg/ml G418 sulfate, and 500 μg/ml Hygromycin B. The rat M1 Y381A orthosteric mutant receptor cDNA was generated using the Quik-Change site-directed mutagenesis kit (Stratagene) and verified by sequencing. CHO-K1 cells were stably transfected with this cDNA using Lipofectamine2000 and screened for expression based on calcium mobilization in response to the allosteric M1 agonist N-desmethylclozapine.
Calcium mobilization assays. For measurement of agonist-evoked increases in intracellular calcium, CHO-K1 cells stably expressing muscarinic receptors were plated in 100 μl of growth medium at 5×10^4 (rM1, hM3, and hM5) or 6×10^4 cells per well (rM1 Y381A, hM2, and rM4) in Costar 96-well black-walled, tissue culture (TC)-treated, clear-bottom plates (Fisher). Cells were incubated overnight at 37° C. and 5% CO2. The next day, medium was removed from the cells, and they were incubated with 50 μl of 2 μM Fluo-4 AM diluted in assay buffer [HBSS (Invitrogen) supplemented with 20 mM HEPES and 2.5 mM probenecid, pH 7.4] for 1 h at 37° C. Dye was removed and replaced with 45 μl of assay buffer. Agonists were diluted into assay buffer at a 2× concentration and applied to cells using the automated system at 19 s into the 130 s protocol. Calcium flux was measured over time as an increase in fluorescence (fold over basal) using the Flexstation plate reader (Molecular Devices).

Setting [1] is: Table 1, R-enantiomers, agonist-evoked calcium flux.

Molecules are shown by their SMILES. Read-outs that look alike come from different tables or passages of the source.

For the compound `CCOC(=O)N1CCC(N2CCC[C@@H](NC(=O)c3ccccc3Cl)C2)CC1` [(R)-ethyl 3-(2-chlorobenzamido)-1,4′-bipiperidine-1′-carboxylate], the Emax (Table 1, R-enantiomers) is 57%. The EC50 under setting [1] turned out to be 2.6 µM.

For the compound `CCOC(=O)N1CCC(N2CCC[C@@H](NC(=O)c3ccc(F)c(F)c3)C2)CC1` [(R)-ethyl 3-(3,4-difluorobenzamido)-1,4′-bipiperidine-1′-carboxylate], the Emax (Table 1, R-enantiomers) was found to be 84%. The EC50 under setting [1] is 0.309 µM.

For `CCOC(=O)N1CCC(N2CCC[C@@H](NC(=O)c3cccc(F)c3)C2)CC1` [(R)-ethyl 3-(3-fluorobenzamido)-1,4′-bipiperidine-1′-carboxylate], the Emax (Table 1, R-enantiomers) stood at 92%. Besides, under setting [1], the EC50 is 0.144 µM.

Take `CCOC(=O)N1CCC(N2CCC[C@@H](NC(=O)c3cccc(OC)c3)C2)CC1` [(R)-ethyl 3-(3-methoxybenzamido)-1,4′-bipiperidine-1′-carboxylate]: under “Table 1, R-enantiomers”, the Emax came to 91%. The EC50 under setting [1] was determined as 0.245 µM.

For the compound `CCOC(=O)N1CCC(N2CCC[C@@H](NC(=O)c3ccc(F)cc3C)C2)CC1` [(R)-ethyl 3-(4-fluoro-2-methylbenzamido)-1,4′-bipiperidine-1′-carboxylate], the Emax (Table 1, R-enantiomers) was 77%. In addition, under setting [1], the EC50 came to 0.059 µM.

As for `CCOC(=O)N1CCC(N2CCC[C@@H](NC(=O)c3ccc(OC)cc3)C2)CC1` [(R)-ethyl 3-(4-methoxybenzamido)-1,4′-bipiperidine-1′-carboxylate], the Emax (Table 1, R-enantiomers) came to 63%. The EC50 under setting [1] was 0.963 µM.

As for `CCOC(=O)N1CCC(N2CCC[C@@H](NC(=O)c3ccc(C)cc3)C2)CC1` [(R)-ethyl 3-(4-methylbenzamido)-1,4′-bipiperidine-1′-carboxylate], the Emax (Table 1, R-enantiomers) was determined as 14%. Moreover, the EC50 under setting [1] came out at 0.819 µM.

Regarding `CCOC(=O)N1CCC(N2CCC[C@@H](NC(=O)C3CCCCC3)C2)CC1` [(R)-ethyl 3-(cyclohexanecarboxamido)-1,4′-bipiperidine-1′-carboxylate], under “Table 1, R-enantiomers”, the Emax is 44%. Also, the EC50 under setting [1] came out at 0.685 µM.

For the compound `CCOC(=O)N1CCC(N2CCC[C@@H](NC(=O)C3CCCC3)C2)CC1` [(R)-ethyl 3-(cyclopentanecarboxamido)-1,4′-bipiperidine-1′-carboxylate], the Emax (Table 1, R-enantiomers) was determined as 35%. For the same compound, under setting [1], the EC50 turned out to be 5.3 µM.

Turning to `CCOC(=O)N1CCC(N2CCC[C@@H](NC(=O)c3cccs3)C2)CC1` [(R)-ethyl 3-(thiophene-2-carboxamido)-1,4′-bipiperidine-1′-carboxylate], the Emax (Table 1, R-enantiomers) is 61%. Besides, the EC50 under setting [1] turned out to be 1.3 µM.

`CCOC(=O)N1CCC(N2CCC[C@H](NC(=O)c3ccccc3Cl)C2)CC1` [(S)-ethyl 3-(2-chlorobenzamido)-1,4′-bipiperidine-1′-carboxylate]: where the note is “Table 2, S-enantiomers”, the EC50 was above 10 µM.

In the case of `CCOC(=O)N1CCC(N2CCC[C@H](NC(=O)c3ccccc3C)C2)CC1` [(S)-ethyl 3-(2-methylbenzamido)-1,4′-bipiperidine-1′-carboxylate], under “Table 2, S-enantiomers”, the EC50 was above 10 µM.

Regarding `CCOC(=O)N1CCC(N2CCC[C@H](NC(=O)c3ccc(F)c(F)c3)C2)CC1` [(S)-ethyl 3-(3,4-difluorobenzarnido)-1,4′-bipiperidine-1′-carboxylate], the EC50 (Table 2, S-enantiomers) was above 10 µM.

Regarding `CCOC(=O)N1CCC(N2CCC[C@H](NC(=O)c3cccc(F)c3)C2)CC1` [(S)-ethyl 3-(3-fluorobenzamido)-1,4′-bipiperidine-1′-carboxylate], the EC50 (Table 2, S-enantiomers) was above 10 µM.

Regarding `CCOC(=O)N1CCC(N2CCC[C@H](NC(=O)c3cccc(OC)c3)C2)CC1` [(S)-ethyl 3-(3-methoxybenzamido)-1,4′-bipiperidine-1′-carboxylate], the EC50 (Table 2, S-enantiomers) is above 10 µM.

Take `CCOC(=O)N1CCC(N2CCC[C@H](NC(=O)c3ccc(F)cc3C)C2)CC1` [(S)-ethyl 3-(4-fluoro-2-methylbenzamido)-1,4′-bipiperidine-1′-carboxylate]: the EC50 (Table 2, S-enantiomers) is above 10 µM.

`CCOC(=O)N1CCC(N2CCC[C@H](NC(=O)c3ccc(OC)cc3)C2)CC1` [(S)-ethyl 3-(4-methoxybenzamido)-1,4′-bipiperidine-1′-carboxylate]: under “Table 2, S-enantiomers”, the half-maximal effective concentration (EC50) was above 10 µM.
